Reference: patent US11384060B2, “Amide compounds and use thereof” (ALPHALA CO., LTD., priority 2017, dated 2022)
Where two headings read alike, the source gives them in different places.

Experiments:
[1] = target: T1, glucagon receptor (GCGR) (Homo sapiens, UniProt P47871); assay: I125-glucagon binding assay (competition, GCGR membrane fractions)
T1 construct: expressed in transfected cells; host or cells: CHO-K1 cells overexpressing GCGR (membrane fractions)
Experimental: I^125-Glucagon Binding Assay
The binding affinity of each compound was evaluated by a competition assay with I^125-glucagon. GCGR membrane fractions were obtained from GCGR overexpressed CHO-K1 cells as a stock of 1 mg/ml concentration. To evaluate the IC50 of compounds binding to GCGR, GCGR membrane fractions were treated with compounds with a serial dilution. The membrane fractions were diluted to 7.5 microgram per well in 70 microliter assay buffer contained 50 mM Tris pH 7.4 and 0.5% (w/v) bovine serum albumin and added into 96 wells plate. The membrane fractions were then mixed with 10 microliter diluted compounds. After 5 minutes pre-incubation, 20 microliter I^125 labeled glucagon (Perkin Elmer) was added into each well at the final concentration of 0.0625 nM. The assay mixtures were incubated at 25° C. for 30 minutes and then transferred onto the Millipore MultiScreen GF/B Plate coated with 0.5% (w/v) Polyethyleneimine. The filter plate was washed with wash buffer contained 50 mM Tris pH 7.4 for 2 times, 300 microliter each time. The residual isotope was detected by Hidex CHAMELEON V micro-beta counter and the IC50 value of each compound binding to GCGR was calculated with non-linear regression.

[2] = target: T2, glucagon receptor (GCGR) overexpressed CHO-K1 cells or human primary hepatocytes (Homo sapiens, UniProt P47871); assay: Glucagon cAMP inhibition assay (Cisbio cAMP Dynamic 2 HTRF); format: cell-based
T2 construct: expressed in transfected cells; host or cells: GCGR overexpressed CHO-K1 cells or human primary hepatocytes (endogenous receptor)
T2 sequence (P47871 26-477): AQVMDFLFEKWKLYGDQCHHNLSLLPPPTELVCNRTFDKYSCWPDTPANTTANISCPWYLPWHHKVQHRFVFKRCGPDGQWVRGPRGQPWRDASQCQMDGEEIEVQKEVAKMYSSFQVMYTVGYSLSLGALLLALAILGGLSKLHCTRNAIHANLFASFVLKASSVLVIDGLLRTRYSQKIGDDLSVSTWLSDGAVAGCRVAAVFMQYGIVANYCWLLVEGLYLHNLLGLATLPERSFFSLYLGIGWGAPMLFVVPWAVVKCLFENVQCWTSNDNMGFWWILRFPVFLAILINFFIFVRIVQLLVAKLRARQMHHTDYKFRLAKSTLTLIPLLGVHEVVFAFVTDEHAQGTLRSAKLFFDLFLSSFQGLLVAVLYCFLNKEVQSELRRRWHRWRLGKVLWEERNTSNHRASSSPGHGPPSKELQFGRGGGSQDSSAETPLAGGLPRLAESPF
Experimental: Glucagon cAMP Inhibition Assay
Downstream secondary messenger cAMP induced by glucagon was detected by Cisbio cAMP Dynamic 2 kit. Testing compounds were each prepared as a dimethyl sulfoxide (DMSO) solution at the concentration of 10 mM. To evaluate the potency of compounds in inhibiting the cAMP production, glucagon receptor (GCGR) overexpressed CHO-K1 cells or human primary hepatocytes were treated with compounds with a serial dilution. The cells were re-suspended in Hank's Balanced Salt solution (HBSS) contained 0.1% (w/v) bovine serum albumin and 800 nM 3-isobutyl-1-methylxanthine (IBMX) and seeded into low volume, 384 wells white plate. The diluted compounds were then added into the plate for 30 minutes pre-incubation where the final DMSO concentration was 1%. The cells were stimulated with glucagon at the concentration equaled to EC50 (an indicium of the concentration of a drug that gives half-maximal response) for 30 minutes at room temperature. After incubation, lysis buffer contain cAMP antibody and fluorescence acceptor were added into each well for additional 60 minutes incubation. Results were recorded by Molecular Devices SpectraMax Paradigm with the HTRF Detection Cartridges and the IC50 value of each compound in inhibiting the cAMP production was calculated with non-linear regression based on the amount of cAMP production.

[3] = competition with I125-glucagon 0.0625 nM, membrane fractions of GCGR overexpressed CHO-K1 cells
[4] = inhibition of glucagon (EC50 concentration) induced cAMP production

T1 sequence (P47871 26-477): as above

| IC50 [1] | IC50 cAMP [2] | IC50 [1, 3] | IC50 cAMP [2, 4] | IC50 ([1]; uM) | SMILES |
| --- | --- | --- | --- | --- | --- |
| > 30 µM | >30000 nM |  |  |  | CCCC[C@@H](COc1nnc(-c2ccc(Cl)cc2Cl)o1)Nc1ccc(C(=O)NCCC(=O)O)cc1 [Compound 22-6, (S)-3-(4-((1-((5-(2,4-dichlorophenyl)-1,3,4-oxadiazol-2-yl)oxy)hexan-2-yl)amino)benzamido)propanoic Acid] |
| 0.283 µM | 259.9 nM |  |  |  | CCCC[C@@H](Cc1ccc(-c2cc3ccccc3o2)cc1)Nc1ccc(C(=O)NCCC(=O)O)cc1 [Compound 19-11, (S)-3-(4-((1-(4-(benzofuran-2-yl)phenyl)hexan-2-yl)amino)benzamido)propanoic Acid] |
| > 30 µM | >30000 nM |  |  |  | CC(C)[C@@H](COc1nnc(-c2ccc(C(F)(F)F)cc2)o1)Nc1ccc(C(=O)NCCC(=O)O)cc1 [Compound 22-13, (S)-3-(4-((3-methyl-1-((5-(4-(trifluoromethyl)phenyl)-1,3,4-oxadiazol-2-yl)oxy)butan-2-yl)amino)benzamido)propanoic Acid] |
| 0.592 µM | 902.8 nM |  |  |  | CCCOC[C@H](Cc1ccc(-c2cc3ccccc3o2)cc1)Nc1ccc(C(=O)NCCC(=O)O)cc1 [Compound 19-26, (S)-3-(4-((1-(4-(benzofuran-2-yl)phenyl)-3-propoxypropan-2-yl)amino)benzamido)propanoic Acid] |
| 11.4 µM | 217 nM |  |  |  | CCOC(=O)CCNC(=O)c1ccc(N[C@H](C(=O)Nc2ccc3cc(OC)ccc3c2)[C@@H](C)CC)cc1 [Compound 24-7, Ethyl 3-(4-(((2S,3S)-1-((6-methoxynaphthalen-2-yl)amino)-3-methyl-1-oxopentan-2-yl)amino)benzamido)propanoate] |
| 0.458 µM | 3100 nM |  |  |  | Cc1cc(C)c(-c2ccc(C[C@H](Nc3ccc(C(=O)NCCC(=O)O)cc3)C(=O)Nc3ccc(C(C)(C)C)cc3)cc2)c(C)c1 [Compound 23-25] |
| 0.203 µM | 151 nM |  |  |  | CC[C@H](C)[C@@H](COc1ccc(-c2cc3ccccc3o2)c(C)n1)Nc1ccc(C(=O)NCCC(=O)O)cc1 [Compound 18-4, 3-(4-(((2S,3S)-1-((5-(benzofuran-2-yl)-6-methylpyridin-2-yl)oxy)-3-methylpentan-2-yl)amino)benzamido)propanoic Acid] |
| 0.042 µM | 49 nM |  |  |  | CCCC[C@@H](COc1ccc(-c2ccc(C(F)(F)F)cc2Cl)c(C)n1)Nc1ccc(C(=O)NCCC(=O)O)cc1 [Compound 18-2, (S)-3-(4-((1-((5-(2-chloro-4-(trifluoromethyl)phenyl)-6-methylpyridin-2-yl)oxy)hexan-2-yl)amino)benzamido)propanoic Acid] |
| > 30 µM | >30000 nM |  |  |  | CCCC[C@@H](COc1nnc(-c2cc3ccccc3o2)o1)Nc1ccc(C(=O)NCCC(=O)O)cc1 [Compound 22-4, (S)-3-(4-((1-((5-(benzofuran-2-yl)-1,3,4-oxadiazol-2-yl)oxy)hexan-2-yl)amino)benzamido)propanoic Acid] |
| 1.28 µM | 318.5 nM |  |  |  | CCOC(=O)CCNC(=O)c1ccc(N[C@H](Cc2ccc(-c3ccc(C(F)(F)F)cc3)cc2)C(=O)Nc2ccc(OC(F)(F)F)cc2)cc1 [Compound 24-27, Ethyl (R)-3-(4-((1-oxo-1-((4-(trifluoromethoxy)phenyl)amino)-3-(4′-(trifluoromethyl)-[1,1′-biphenyl]-4-yl)propan-2-yl)amino)benzamido)propanoate] |
| 0.08 µM | 3500 nM |  |  |  | CC(C)C[C@H](Nc1ccc(C(=O)NCCC(=O)O)cc1)C(=O)Nc1ccc(-c2cc3ccccc3o2)cc1 [Compound 23-5, (S)-3-(4-((1-((4-(benzofuran-2-yl)phenyl)amino)-4-methyl-1-oxopentan-2-yl)amino)benzamido)propanoic Acid] |

The remaining lines, values behind:

| SMILES | IC50 [1] | IC50 cAMP [2] | IC50 [1, 3] | IC50 cAMP [2, 4] | IC50 ([1]; uM) |
| --- | --- | --- | --- | --- | --- |
| COc1cc(OC[C@@H](Nc2ccc(C(=O)NCCC(=O)O)cc2)C(C)C)ccc1-c1ccc(C(F)(F)F)cc1Cl [Compound 13-6, (S)-3-(4-((1-((2′-chloro-2-methoxy-4′-(trifluoromethyl)-[1,1′-biphenyl]-4-yl)oxy)-3-methylbutan-2-yl)amino)benzamido)propanoic Acid] |  |  | 0.089 µM | 97 nM |  |
| CC(C)C[C@@H](COc1cnc(-c2ccc(Cl)cc2Cl)nc1)Nc1ccc(C(=O)NCCC(=O)O)cc1 [Compound 12-11, (S)-3-(4-((1-((2-(2,4-dichlorophenyl)pyrimidin-5-yl)oxy)-4-methylpentan-2-yl)amino)benzamido)propanoic Acid] |  |  | 0.233 µM | 3585 nM |  |
| CC(C)(C)[C@@H](COc1ccc(-c2ccc(C(F)(F)F)cc2F)c(Cl)c1)Nc1ccc(C(=O)NCCC(=O)O)cc1 [Compound 3-24, (S)-3-(4-((1-((2-chloro-2′-fluoro-4′-(trifluoromethyl)-[1,1′-biphenyl]-4-yl)oxy)-3,3-dimethylbutan-2-yl)amino)benzamido)propanoic Acid] |  |  | 0.053 µM | 80 nM |  |
| CCOC(=O)CCNC(=O)c1ccc(N[C@H](COc2ccc(-c3nc4ccccc4s3)cn2)C(C)C)cc1 [Compound 15-36, Ethyl (S)-3-(4-((1-((5-(benzo[d]thiazol-2-yl)pyridin-2-yl)oxy)-3-methylbutan-2-yl)amino)benzamido)propanoate] |  | 1973 nM |  |  | > 30 µM |
| CC(C)[C@@H](COc1ccc(-c2ccc(C(F)(F)F)cc2Cl)nc1)Nc1ccc(C(=O)NCCC(=O)O)cc1 [Compound 10-2] |  |  | 0.255 µM | 1805 nM |  |
| CC[C@H](C)[C@@H](COc1ccc(-c2cc3ccccc3o2)cn1)Nc1ccc(C(=O)NCCC(=O)O)cc1 [Compound 15-15, 3-(4-(((2S,3S)-1-((5-(benzofuran-2-yl)pyridin-2-yl)oxy)-3-methylpentan-2-yl)amino)benzamido)propanoic Acid] | 0.207 µM | 32.73 nM |  |  |  |
| CC(C)[C@@H](COc1ccc(-c2cc3ccccc3o2)c(Cl)c1)Nc1ccc(C(=O)NC[C@@H](O)C(=O)O)cc1 [Compound 3-6, (R)-3-(4-(((S)-1-(4-(benzofuran-2-yl)-3-chlorophenoxy)-3-methylbutan-2-yl)amino)benzamido)-2-hydroxypropanoic Acid] |  |  | 0.184 µM | 9291 nM |  |
| CC[C@H](C)[C@@H](COc1ccc(-c2ccc(F)cc2F)cn1)Nc1ccc(C(=O)NCCC(=O)O)cc1 [Compound 15-20, 3-(4-(((2S,3S)-1-((5-(2,4-difluorophenyl)pyridin-2-yl)oxy)-3-methylpentan-2-yl)amino)benzamido)propanoic Acid] | 0.382 µM | 1255 nM |  |  |  |
| CCCC[C@@H](COc1ccc(-c2ccc(Cl)cc2Cl)c(Cl)c1)Nc1ccc(C(=O)NCc2nnn[nH]2)cc1 [Compound 3-13, (S)—N-((1H-tetrazol-5-yl)methyl)-4-((1-((2,2′,4′-trichloro-[1,1′-biphenyl]-4-yl)oxy)hexan-2-yl)amino)benzamide] |  |  | 0.092 µM | 279.9 nM |  |
| CC[C@H](C)[C@@H](COc1ccc(-c2cc3ccccc3o2)nc1)Nc1ccc(C(=O)NCCC(=O)O)cc1 [Compound 10-13, 3-(4-(((2S,3S)-1-((6-(benzofuran-2-yl)pyridin-3-yl)oxy)-3-methylpentan-2-yl)amino)benzamido)propanoic Acid] |  |  | 0.224 µM | 863.9 nM |  |
| CC(C)COC[C@H](Cc1ccc(-c2ccc(OC(F)(F)F)cc2)cc1)Nc1ccc(C(=O)NCCC(=O)O)cc1 [Compound 19-33, (S)-3-(4-((1-isobutoxy-3-(4′-(trifluoromethoxy)-[1,1′-biphenyl]-4-yl)propan-2-yl)amino)benzamido)propanoic Acid] | 0.284 µM | 472 nM |  |  |  |
| CC(C)(C)c1ccc(-c2ccc(OC[C@@H](Nc3ccc(C(=O)NC[C@@H](O)C(=O)O)cc3)c3ccccc3)nc2)cc1 [Compound 15-6, (R)-3-(4-(((S)-2-((5-(4-(tert-butyl)phenyl)pyridin-2-yl)oxy)-1-phenylethyl)amino)benzamido)-2-hydroxypropanoic Acid] | 0.172 µM | >30000 nM |  |  |  |
| CC[C@H](C)[C@@H](CSc1ccc(-c2ccc(C(F)(F)F)cc2)cc1)Nc1ccc(C(=O)NCCC(=O)O)cc1 [Compound 5-2, 3-(4-(((2S,3S)-3-methyl-1-((4′-(trifluoromethyl)-[1,1′-biphenyl]-4-yl)thio)pentan-2-yl)amino)benzamido)propanoic Acid] |  |  | 1.19 µM | 2465 nM |  |
